Measurements as given in PMC8298375 (Naunyn-Schmiedeberg's Archives of Pharmacology, 2021).
Counter-ions that a name gives are not always drawn.

Tests used:
[1] = set-up: method as in Jann [2000]; conditions: ref Jann [2000]; cited from earlier work
[2] = test system: AChE; format: in vivo, rat; conditions: scopolamine model, listed as pure drug
Procedure: Samples were then centrifuged at 10,000 rpm for 5 min, and plasma was stored at − 70 °C until analysis.
Thiocholine, which was produced due to the hydrolysis of acetylthiocholine (ACTI) by AChE, was estimated by making it react with 5, 5′-dithiobis-(2-nitrobenzoic acid) (DTNB). The chemical, 5-thio-2-nitrobenzoic acid (yellow color complex), which was released due to reaction was estimated using a UV spectrophotometer in the range of 400 to 420 nm with maximal absorption at 412 nm. One hundred microliter of blank rat plasma was taken in the polypropylene vials. To this, 2.8 mL of phosphate buffer (0.01 M, pH 8) and 100 µL of DTNB reagents were added and mixed well. Then, 20 µL of ACTI (26.01 mg/mL of Milli-Q water) was added to the contents of the cuvette to initiate the enzyme reaction. The reaction kinetics was monitored at different time intervals (0, 1, 2, 3, 4 min), and absorbance was noted. 2.8 mL buffer (0.01 M, pH 8.0) and 100 µL DTNB reagent served as blank. Concentrations in the range of 0.03–30 mM were prepared using methanol as a diluent. […] Substrate concentration and reaction time were optimized such that sufficient concentration of ACTI is available to bind with the enzyme to initiate the reaction and also it should not saturate the enzyme. In this study, varying concentrations (100–1000 µM) of ACTI were prepared, and reaction kinetics were observed. In general, the maximum time should be either 2–4 min or even less, because the enzyme might undergo degradation. In the present study, up to 4 min of reaction kinetics (changing the optical density or absorbance) was measured. One unit of AChE activity is defined as the number of µmol of acetylthiocholine iodide hydrolyzed per minute. The specific activity of AChE is expressed in moles/min/mg of protein (Kaur et al. [2015]): AChEActivity=(abs.permin×1000×volumeofenzyme)/(13600×TRM)AChEActivity=abovevalue×1000(nanomolar/min/mL)
where 13,600 = molar extinction coefficient of DTNB: 1000-molar conversion factor: (TRM) total reaction mixture 3 mL: volume of enzyme (0.1 mL).

[3] = In vitro release studies, release kinetics and mechanism (dialysis sac); format: physicochemical; conditions: PBS pH 7.4, dialysis sac
Procedure: In vitro release studies were performed using dialysis sac (Sigma membrane, MW cut-off 13 kDa) method. Two milligram equivalent of rivastigmine-loaded nanoparticles were weighed and suspended in 2 mL of phosphate buffer saline (pH 7.4). Samples were withdrawn at predetermined time intervals and analyzed by HPLC method. In order to maintain sink conditions, an equal volume of PBS was replaced. The whole experiment was performed at […]. Based on the cumulative drug release vs. time profiles, the release kinetics models and mechanism were proposed (Akbuǧa and Bergişadi [1997]).

[4] = set-up: method as in Arumugam [2009]; conditions: male vs female rats; ref Arumugam [2009]; cited from earlier work
[5] = test system: cholinesterase enzyme; set-up: method as in Emerich and Walsh [1990]; conditions: 2.5 mg/kg via the oral route; ref Emerich and Walsh [1990]; cited from earlier work
[6] = set-up: method as in Jann [2000]; conditions: ref Jann [2000], cited from earlier work

Structure (SMILES): CCN(C)C(=O)Oc1cccc([C@H](C)N(C)C)c1 [Rivastigmine, Rivastigmine hydrogen tartrate]
- log P predicted [1]: 2.45
- peak AChE inhibition (Emax, maximum inhibition) in plasma [2]: 71.95%
- drug released within 2 h [3]: 85%
- elimination rate constant, male rats versus female rats [4]: 2.5 fold
- inhibition of the cholinesterase enzyme in the cortex and hippocampus [5]: 20–30%
- bioavailability ([6]; oral): 36–40%
- plasma elimination half-life [6]: 1.5 h
